Source: patent US20250235399A1, “METHODS OF PREPARING CARRIER-BASED DRY POWDERS FOR INHALATION” (Board of Regents, The University of Texas System, priority 2022, published 2025)

Assays:
[1] = Geometric particle size of rifampicin blends and starting materials (HELOS laser diffraction, RODOS); format: physicochemical; conditions: Table 3; for X10 / X50 / X90: particle size distribution
Description: The geometric particle size of the powder blends was measured using laser diffraction (HELOS, Sympatec, Germany) for the pre-blend and after each blending cycle. Measurements were done using a RODOS powder disperser at a pressure drop of 1 bar and rotor speed set at 50% (FIG. 6). […] The particles diameter is expressed as the mean Xn diameter values, where n % of the particles have a diameter≤X. Jaffari, S., et al. Rapid Characterisation of the Inherent Dispersibility of Respirable Powders Using Dry Dispersion Laser Diffraction. Int. J. Pharm. […] A measure of particle size distribution breadth is represented by the calculated factor “Span”. This was calculated using the following expression: (X90−X10)/X50.
Particle size analysis was conducted on blended materials and compared to pre-blend and lactose/magnesium stearate controls.

[2] = Particle size of budesonide blend starting materials (HELOS/RODOS laser diffraction); format: physicochemical; conditions: RODOS laser diffraction, 3 bar, 50% rotation
Description: Particle size distribution of alpha-lactose monohydrate, magnesium stearate and budesonide were analyzed using a laser diffractometer (Sympatec, Clausthal-Zellerfeld, Germany). […] About 0.5 g of each component was carefully loaded on the turntable of the vibratory feeding module. Samples were dispersed at 3 bar and 50% rotation (FIG. 11). Data was acquired using Windox software (Sympatec, Clausthal-Zellerfeld, Germany) and volume-based size distribution was calculated using Fraunhofer theory.
Table 6 lists the particle size distribution for starting materials as determined by laser diffraction. Budesonide was confirmed to be sufficiently micronized (e.g. less than 5 μm). Magnesium stearate and lactose size distributions were within the size ranges provided by manufacturers.

| Molecule | Span ((X90-X10)/X50) [1] | X10 [1] [μm] | X50 [1] [μm] | X90 [1] [μm] | D10 [2] [μm] | D50 [2] [μm] | D90 [2] [μm] |
| --- | --- | --- | --- | --- | --- | --- | --- |
| Magnesium stearate | 1.87 | 2.08 | 8.14 | 17.34 | 1.29 | 4.45 | 9.93 |
| O.OC[C@H]1O[C@@H](O[C@H]2[C@H](O)[C@@H](O)[C@@H](O)O[C@@H]2CO)[C@H](O)[C@@H](O)[C@H]1O [Lactohale 206] |  | 1.91 | 4.15 | 116.14 |  |  |  |
| O.OC[C@H]1O[C@@H](O[C@H]2[C@H](O)[C@@H](O)[C@@H](O)O[C@@H]2CO)[C@H](O)[C@@H](O)[C@H]1O [Lactose, Alpha-lactose monohydrate] |  |  |  |  | 32.09 | 80.34 | 111.84 |
